Test results taken from patent publication US4160829A, “Antibacterial 1,2,4-oxadiazolylacetamido cephalosporins” (Gist-Brocades N.V., priority 1972, dated 1979).
Values after ≈ are worked out from the molar mass of the structure shown. Like-named read-outs stand apart in the source and are kept apart here. Blank lines part the entries; values can stand above or below the compound they belong to.

Tests used:
Prot.mirab. A 1200 = assay: agar serial dilution test; assay type: cell-based, Proteus mirabilis; conditions: agar serial dilution, 24 hours, 37° C.
Strep. faec. L 80 = assay: agar serial dilution test; assay type: cell-based, Streptococcus faecalis; conditions: Enterococcus faecalis; agar serial dilution, 24 hours, 37° C.; read-out: minimal inhibitory concentration (MIC)
Prot.morg. 2241 = assay: agar serial dilution test; assay type: cell-based; conditions: 24 h, agar serial dilution, 24 hours, 37° C.; read-out: minimal inhibitory concentration (MIC)
[1] = system: Pseud.aerug. Wyeth A 1058; assay: agar serial dilution test; assay type: cell-based; conditions: agar serial dilution, 24 hours, 37° C.; read-out: minimal inhibitory concentration (MIC)
Esch.coli U 20 = assay: agar serial dilution test; assay type: cell-based, Escherichia coli; conditions: Escherichia coli, U20, 24 h, read-out: minimal inhibitory concentration (MIC), agar serial dilution, 24 hours, 37° C.
Past.multo. A 723 = assay: agar serial dilution test; assay type: cell-based, Pasteurella multocida; conditions: Pasteurella multocida; agar serial dilution, 24 hours, 37° C.; read-out: minimal inhibitory concentration (MIC)
Shig.equir. T 3 = assay: agar serial dilution test; assay type: cell-based; conditions: 37° C.
Prot.mirab. L 93 = assay: agar serial dilution test; assay type: cell-based, Proteus mirabilis; conditions: Proteus mirabilis
Staph.aureus A 2001 [2] = assay: agar serial dilution test; assay type: cell-based, Staphylococcus aureus; conditions: Staphylococcus aureus, A2001, 24 h, agar serial dilution, 24 hours, 37° C.; read-out: minimal inhibitory concentration (MIC)
Staph.aureus A 355 [3] = assay: agar serial dilution test; conditions: Staphylococcus aureus, A355, 24 h, read-out: minimal inhibitory concentration (MIC), agar serial dilution, 24 hours, 37° C.; penicillinase-producing strain
Staph.aureus A 355 [4] = assay: micro serial dilution test; assay type: cell-based, Staphylococcus aureus; conditions: Staphylococcus aureus, A355; micro serial dilution (in brackets), about 18 hours, 30° C. or 37° C.; penicillinase-producing strain; read-out: minimal inhibitory concentration (MIC)
Strep.haem. A 266 = assay: agar serial dilution test; assay type: cell-based, Streptococcus haemolyticus; conditions: Streptococcus; agar serial dilution, 24 hours, 37° C.; read-out: minimal inhibitory concentration (MIC)
Salm.typh. R 127 = assay: agar serial dilution test; assay type: cell-based; conditions: 24 h, 37° C., read-out: minimal inhibitory concentration (MIC)
Dipl.pneum. L 54 = assay: agar serial dilution test; assay type: cell-based, Diplococcus pneumoniae; conditions: Streptococcus pneumoniae; agar serial dilution, 24 hours, 37° C.; read-out: minimal inhibitory concentration (MIC)
Staph.aureus A 2000 [5] = assay: agar serial dilution test; assay type: cell-based, Staphylococcus aureus; conditions: Staphylococcus aureus, A2000, 24 h, agar serial dilution, 24 hours, 37° C.; read-out: minimal inhibitory concentration (MIC)
Pseud.aerug. 2396 = assay: agar serial dilution test; assay type: cell-based; conditions: agar serial dilution, 24 hours, 37° C.; read-out: minimal inhibitory concentration (MIC)
Staph.aureus A 2001 [6] = assay: micro serial dilution test; assay type: cell-based, Staphylococcus aureus; conditions: Staphylococcus aureus, A2001, 18 h, micro serial dilution (in brackets), about 18 hours, 30° C. or 37° C.; read-out: minimal inhibitory concentration (MIC)
Pseud.aerug. H 10 = assay: agar serial dilution test; assay type: cell-based; conditions: agar serial dilution, 24 hours, 37° C.; read-out: minimal inhibitory concentration (MIC)
Kleb.pneum. A 809 = assay: agar serial dilution test; assay type: cell-based, Klebsiella pneumoniae; conditions: Klebsiella pneumoniae; agar serial dilution, 24 hours, 37° C.; read-out: minimal inhibitory concentration (MIC)
Prot.mirab. H 3 = assay: agar serial dilution test; assay type: cell-based, Proteus mirabilis; conditions: Proteus mirabilis; agar serial dilution, 24 hours, 37° C.; read-out: minimal inhibitory concentration (MIC)
Salm.dubl. P 43 = assay: agar serial dilution test; assay type: cell-based, Salmonella dublin; conditions: Salmonella enterica; agar serial dilution, 24 hours, 37° C.; read-out: minimal inhibitory concentration (MIC)
[7] = tests with mice, blood levels and urine activity
[8] = system: penicillin resistant Staphylococcus aureus strain; assay: protection test; assay type: in vivo; conditions: sc, protection test, subcutanal administration, read-out: ED50
Source text: The compound may preferably be used parenterally.

Staph.aureus A 321 = assay: agar serial dilution test; assay type: cell-based, Staphylococcus aureus; conditions: Staphylococcus aureus, A321, 24 h, agar serial dilution, 24 hours, 37° C.; read-out: minimal inhibitory concentration (MIC)
Bac.Subt.ATCC 6633 = assay: agar serial dilution test; assay type: cell-based, Bacillus subtilis; conditions: Bacillus subtilis, ATCC6633, 24 h, agar serial dilution, 24 hours, 37° C.; read-out: minimal inhibitory concentration (MIC)
Prot.rettg. A 821 = assay: agar serial dilution test; assay type: cell-based, Proteus rettgeri; conditions: Providencia rettgeri, 24 h, read-out: minimal inhibitory concentration (MIC)
Staph.aureus A 2000 [9] = assay: micro serial dilution test; assay type: cell-based, Staphylococcus aureus; conditions: Staphylococcus aureus, A2000, 18 h, micro serial dilution (in brackets), about 18 hours, 30° C. or 37° C.; read-out: minimal inhibitory concentration (MIC)
[10] = stability in refluxing slightly moist diethyl ether (thin-layer chromatography); assay type: physicochemical; conditions: refluxed 24 hours, read-out: destruction to 5-methyl-1,2,4-oxadiazol-3-yl-acetic acid
Experimental: Stability of 1,2,4-oxadiazol-3,5-diyl-bisacetic acid: A small sample was dissolved in slightly moist diethyl ether and the solution was refluxed for 24 hours.

SMILES: COCc1noc(CC(=O)N[C@@H]2C(=O)N3C(C(=O)O)=C(COC(C)=O)CS[C@H]23)n1 [Example 37, 7-[3-methoxymethyl-1,2,4-oxadiazol-5-yl-acetamido]-cephalosporanic acid]
MIC (Prot.mirab. A 1200; Proteus mirabilis, 24 h, read-out: minimal inhibitory concentration (MIC)): 50 µg/mL (≈ 117 µM) | minimal inhibitory concentration (MIC) (Prot.mirab. A 1200): 100 µg/mL (≈ 235 µM) | MIC (Strep. faec. L 80): 50 µg/mL (≈ 117 µM) | MIC (Prot.morg. 2241): > 100 µg/mL | MIC [1]: > 100 µg/mL | MIC (Esch.coli U 20): 12.5 µg/mL (≈ 29.3 µM) | MIC (Past.multo. A 723): 1 µg/mL (≈ 2.35 µM) | MIC (Shig.equir. T 3; 24 h, read-out: minimal inhibitory concentration (MIC)): 3 µg/mL (≈ 7.04 µM) | minimal inhibitory concentration (MIC) (Shig.equir. T 3; 24 hours): 6 µg/mL (≈ 14.1 µM) | MIC (Prot.mirab. L 93; 24 h, read-out: minimal inhibitory concentration (MIC), agar serial dilution, 24 hours, 37° C.): 12.5 µg/mL (≈ 29.3 µM) | MIC (Prot.mirab. L 93; agar serial dilution, 24 hours, 37° C., read-out: minimal inhibitory concentration (MIC)): 6 µg/mL (≈ 14.1 µM) | MIC (Staph.aureus A 2001 [2]): 0.75 µg/mL (≈ 1.76 µM) | MIC (Staph.aureus A 355 [3]): 1.5 µg/mL (≈ 3.52 µM) | MIC (Staph.aureus A 355 [4]): 0.9 µg/mL (≈ 2.11 µM) | MIC (Strep.haem. A 266): 0.12 µg/mL (≈ 0.281 µM) | MIC (Salm.typh. R 127): 12.5 µg/mL (≈ 29.3 µM) | MIC (Dipl.pneum. L 54): 0.75 µg/mL (≈ 1.76 µM) | MIC (Staph.aureus A 2000 [5]): 1.5 µg/mL (≈ 3.52 µM) | MIC (Pseud.aerug. 2396): > 100 µg/mL | MIC (Staph.aureus A 2001 [6]): 0.45 µg/mL (≈ 1.06 µM) | MIC (Pseud.aerug. H 10): > 100 µg/mL | MIC (Kleb.pneum. A 809): 3 µg/mL (≈ 7.04 µM) | MIC (Prot.mirab. H 3): 25 µg/mL (≈ 58.6 µM) | MIC (Salm.dubl. P 43): 3 µg/mL (≈ 7.04 µM) | blood levels (in words) [7]: good blood levels | urine activity against pathogenic germs (in words) [7]: strong urine activity against pathogenic germs | ED50 [8]: 1.2 mg/kg | MIC (Staph.aureus A 321): 0.5 µg/mL (≈ 1.17 µM) | MIC (Bac.Subt.ATCC 6633): 0.12 µg/mL (≈ 0.281 µM) | MIC (Prot.rettg. A 821; agar serial dilution, 24 hours, 37° C.): 3 µg/mL (≈ 7.04 µM) | MIC (Prot.rettg. A 821): 12.5 µg/mL (≈ 29.3 µM) | MIC (Staph.aureus A 2000 [9]): 0.6 µg/mL (≈ 1.41 µM)

degraded at 24 h [10]: < 5%
SMILES: O=C(O)Cc1noc(CC(=O)O)n1 [Example 39, 1,2,4-oxadiazole-3,5-diyl-bisacetic acid]
